From publication PMC9319270, “Combination of Six Individual Derivatives of the Pom-1 Antibiofilm Peptide Doubles Their Efficacy against Invasive and Multi-Resistant Clinical Isolates of the Pathogenic Yeast Candida albicans” (Pharmaceutics, 2022)
Like-named read-outs stand apart in the source and are kept apart here.

Columns and labels:
[1] = tested on: invasive C. albicans clinical isolates; assay type: cell-based, Candida albicans; details: 20 biofilm-forming isolates
Experimental: The antifungal effect of Pom-1A to Pom-1F on Candida spp. biofilm formation can be determined following the Clinical and Laboratory Standard Institute guidelines (M27-A3). For this, 2.5 × 10^3 yeast cells were incubated in 200 µL of RPMI-1640 medium supplemented with L-glutamine, fluconazole, amphotericin B, and Pom-1A to Pom-1F. Incubation was performed on flat-bottomed polystyrene microplates with 96 wells (Sarstedt AG & Co. KG, Nümbrecht, Germany) for 24 h at 37 °C without shaking. The subsequent treatment with crystal violet was originally developed by George O’Toole for bacteria and adapted to Candida biofilms. For this purpose, the planktonic phase was removed, and the wells were washed twice with 200 µL of demineralized water. The remaining biofilm cells were treated with 200 µL of 0.1% (w/v) crystal violet solution for 15 min. After removing the solution, they were washed again twice with 200 µL demineralized water, and the microtiter plates were dried for at least 24 h at 25 °C. The stain was dissolved with 200 µL of 30% acetic acid and transferred to a new plate after 15 min. The absorbance at 560 nm was measured using a Tecan Infinite F200 microplate reader (Tecan Group Ltd., Männedorf, Switzerland). The resulting data were evaluated against the untreated controls so that the efficacy of the agents could be determined.

[2] = tested on: adenocarcinomic human alveolar basal epithelial cells A549; assay type: cell-based
Experimental: (§1) For the experiments, adenocarcinomic human alveolar basal epithelial cells A549 [69] and human dermal fibroblasts (HDFs) were used. Cultivation was performed in DMEM with FBS (10% (w/v), 15% (w/v)), MEM NEAAs (1% (w/v)), and penicillin–streptomycin (100 U*mL^−1, 1% (w/v)) at 37 °C in an incubator containing 5% CO2. A resazurin assay was used to detect the viability of the cells. Therefore, 2 × 10^4 cells per well of a 96-well plate were incubated in 200 µL DMEM with additives at 37 °C and 5% CO2. The medium was removed, and 100 µL of the medium and 100 µL of a peptide solution (2.5 µg/mL, 25 µg/mL) were added. After incubation for 24 h at 37 °C and 5% CO2, 20 µL of a resazurin solution (0.15 mg/mL) were added into each well, and the cells were incubated again for 24 h at 37 °C and 5% CO2. Fluorescence measurement (excitation wavelength—535 nm, emission wavelength—595 nm) of the resulting resorufin was then performed using a Tecan Infinite F200 microplate reader (Tecan Group Ltd., Männedorf, Switzerland).

[3] = tested on: human dermal fibroblasts (HDFs); assay type: cell-based
Experimental: as §1

Molecule: OC(Cn1cncn1)(Cn1cncn1)c1ccc(F)cc1F [fluconazole, Fluconazole]
- number of resistant isolates (biofilm detectable, inhibition lower than 100%) ([1]; fluconazole 8 µg/mL (w/v)): four

Molecule: C[C@@H]1[C@H](O)[C@@H](C)/C=C/C=C/C=C/C=C/C=C/C=C/C=C/[C@H](O[C@@H]2O[C@H](C)[C@@H](O)[C@H](N)[C@@H]2O)C[C@@H]2O[C@](O)(C[C@@H](O)C[C@@H](O)[C@H](O)CC[C@@H](O)C[C@@H](O)CC(=O)O[C@H]1C)C[C@H](O)[C@H]2C(=O)O [amphotericin B]
- number of resistant isolates (biofilm detectable, inhibition lower than 100%) ([1]; amphotericin B 2 µg/mL (w/v)): six

Molecule: Triton X-100
- cell viability, A549 [2]: zero
- cell viability, HDF [3]: zero
